Data: patent US6737383B1, “Herbicidal oxadiazolidines” (priority 1999, dated 2004)

Tests used:
bedstraw = test: Test B pre/postemergence bedstraw; format: in vivo, Galium aparine
Summary of the method: (§1)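 Herbicidal effect was estimated by eye on a ten-point control scale after plants spent twelve to sixteen days in a greenhouse following soil or foliar treatment. Foliar sprays targeted plants at one to four leaves; all doses were formulated in a non-phytotoxic solvent with surfactant.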

blackgrass = test: Test B pre/postemergence blackgrass; format: in vivo, Alopecurus myosuroides
Summary of the method: as §1

surinam grass = test: Test B pre/postemergence surinam grass; format: in vivo, Brachiaria decumbens
Summary of the method: as §1

cocklebur = test: Test B pre/postemergence cocklebur; format: in vivo, Xanthium strumarium
Summary of the method: as §1

corn = test: Test B pre/postemergence corn; format: in vivo, Zea mays
Summary of the method: as §1

crabgrass = test: Test B pre/postemergence crabgrass; format: in vivo, Digitaria sanguinalis
Summary of the method: as §1

giant foxtail = test: Test B pre/postemergence giant foxtail; format: in vivo, Setaria faberii
Summary of the method: as §1

morningglory = test: Test B pre/postemergence morningglory; format: in vivo, Ipomoea hederacea
Summary of the method: as §1

pigweed = test: Test B pre/postemergence pigweed; format: in vivo, Amaranthus retroflexus; conditions: for Plant response rating, Redroot pigweed: Postemergence
Summary of the method: as §1

rape = test: Test B pre/postemergence rape; format: in vivo, Brassica napus
Summary of the method: as §1

soybean = test: Test B pre/postemergence soybean; format: in vivo, Glycine max; conditions: for Plant response rating, Soybean: Postemergence
Summary of the method: as §1

sugar beet = test: Test B pre/postemergence sugar beet; format: in vivo, Beta vulgaris; conditions: for Plant response rating, Sugarbeets: Postemergence
Summary of the method: as §1

velvetleaf = test: Test B pre/postemergence velvetleaf; format: in vivo, Abutilon theophrasti; conditions: for Plant response rating, Velvetleaf: Postemergence
Summary of the method: as §1

wheat = test: Test B pre/postemergence wheat; format: in vivo, Triticum aestivum; conditions: for Plant response rating, Wheat: Postemergence
Summary of the method: as §1

wild oat = test: Test B pre/postemergence wild oat; format: in vivo, Avena fatua; conditions: for Plant response rating, Wild oats: Postemergence
Summary of the method: as §1

purple nutsedge = test: Test B pre/postemergence purple nutsedge; format: in vivo, Cyperus rotundus
Summary of the method: as §1

rice = test: Test B flood test rice; format: in vivo, Oryza sativa
Summary of the method: (§2)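 Read-out is a visual response score from 0 (no effect) to 10 (complete control), assigned by comparison with untreated controls. Treatment was applied at the 2-leaf stage, and plants stayed in the greenhouse for twelve to sixteen days before scoring.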

smallflower flatsedge = test: Test B flood test smallflower flatsedge; format: in vivo, Cyperus difformis
Summary of the method: as §2

duck salad = test: Test B flood test duck salad; format: in vivo, Heteranthera limosa
Summary of the method: as §2

bamyardgrass = test: Test B flood test barnyardgrass; format: in vivo, Echinochloa crus-galli
Summary of the method: as §2

[1] = Postemergence, Rate 62 g/ha, scale of 0 to 10, 0 is no effect, 10 is complete control
[2] = Postemergence, Rate 125 g/ha, scale 0 to 10, 0 is no effect, 10 is complete control
[3] = Preemergence, Rate 62 g/ha, scale 0 to 10 (0 no effect, 10 complete control)
[4] = Preemergence, Rate 500 g/ha, scale of 0 to 10 where 0 is no effect and 10 is complete control
[5] = Postemergence, Rate 500 g/ha, scale of 0 to 10 where 0 is no effect and 10 is complete control
[6] = Preemergence, Rate 125 g/ha, scale 0 to 10, 0 is no effect, 10 is complete control
[7] = Rate 250 g/ha, Postemergence, scale of 0 to 10 where 0 is no effect and 10 is complete control
[8] = Rate 500 g/ha, scale of 0 to 10 where 0 is no effect and 10 is complete control
[9] = Rate 250 g/ha, scale of 0 to 10 where 0 is no effect and 10 is complete control
[10] = Rate 62 g/ha, flood test species, Pre-emergence, visual evaluation after twelve to sixteen days
[11] = Rate 125 g/ha, under heading Pre-emergence, flood test species, visual evaluation after twelve to sixteen days
[12] = Rate 250 g/ha, Pre-emergence (flood test species), scale 0 to 10, 0 is no effect, 10 is complete control
[13] = Rate 500 g/ha, Pre-emergence section of Table B, 0 to 10 scale (0 no effect, 10 complete control)

## CC(C)N(C(=O)n1oc(=O)n(CC2CC2)c1=O)c1ccccc1 [Compound 568]
bedstraw; [1]
  Bedstraw plant response rating: 0
bedstraw; [2]
  Bedstraw plant response rating: 2
bedstraw; [3]
  Bedstraw plant response rating: 0
bedstraw; Preemergence, Rate 250 g/ha
  Bedstraw plant response rating (0 to 10 scale): 3
bedstraw; [4]
  Bedstraw plant response rating: 8
blackgrass; [1]
  Blackgrass plant response rating: 8
blackgrass; [2]
  Blackgrass plant response rating: 8
blackgrass; [5]
  Plant response rating, Blackgrass: 9
blackgrass; [3]
  Blackgrass plant response rating: 5
blackgrass; [6]
  Blackgrass plant response rating: 8
blackgrass; Preemergence, Rate 250 g/ha
  Blackgrass plant response rating (0 to 10 scale): 8
blackgrass; [4]
  Blackgrass plant response rating: 9
blackgrass; [7]
  Plant response rating, Blackgrass: 8
Surinam grass; [1]
  B. signalgrass plant response rating: 1
Surinam grass; [2]
  B. signalgrass plant response rating: 4
Surinam grass; [5]
  Plant response rating, B. signalgrass: 7
Surinam grass; [3]
  B. signalgrass plant response rating: 3
Surinam grass; [6]
  B. signalgrass plant response rating: 6
Surinam grass; Preemergence, Rate 250 g/ha
  B. signalgrass plant response rating (0 to 10 scale, 0 is no effect, 10 is complete control): 8
Surinam grass; [4]
  B. signalgrass plant response rating: 9
Surinam grass; [7]
  Plant response rating, B. signalgrass: 7
cocklebur; [1]
  Cocklebur plant response rating: 1
cocklebur; [2]
  Cocklebur plant response rating: 1
cocklebur; [5]
  Plant response rating, Cocklebur: 6
cocklebur; [3]
  Cocklebur plant response rating: 0
cocklebur; [6]
  Cocklebur plant response rating: 0
cocklebur; Preemergence, Rate 250 g/ha
  Cocklebur plant response rating (0 to 10 scale): 0
cocklebur; [4]
  Cocklebur plant response rating: 2
cocklebur; [7]
  Plant response rating, Cocklebur: 1
corn; [1]
  Corn plant response rating: 0
corn; [2]
  Corn plant response rating: 0
corn; [5]
  Plant response rating, Corn: 5
corn; [3]
  Corn plant response rating: 0
corn; [6]
  Corn plant response rating: 4
corn; Preemergence, Rate 250 g/ha
  Corn plant response rating (0 to 10 scale): 5
corn; [4]
  Corn plant response rating: 9
corn; [7]
  Plant response rating, Corn: 4
crabgrass; [1]
  Crabgrass plant response rating: 8
crabgrass; [2]
  Crabgrass plant response rating: 8
crabgrass; [5]
  Plant response rating, Crabgrass: 9
crabgrass; [3]
  Crabgrass plant response rating: 7
crabgrass; [6]
  Crabgrass plant response rating: 7
crabgrass; Preemergence, Rate 250 g/ha
  Crabgrass plant response rating (0 to 10 scale): 9
crabgrass; [4]
  Crabgrass plant response rating: 10
crabgrass; [7]
  Plant response rating, Crabgrass: 9
Giant foxtail; [1]
  Giant foxtail plant response rating: 7
Giant foxtail; [2]
  Giant foxtail plant response rating: 9
Giant foxtail; [5]
  Plant response rating, Giant foxtail: 9
Giant foxtail; [3]
  Giant foxtail plant response rating: 9
Giant foxtail; [6]
  Giant foxtail plant response rating: 10
Giant foxtail; Preemergence, Rate 250 g/ha
  Giant foxtail plant response rating (0 to 10 scale): 10
Giant foxtail; [4]
  Giant foxtail plant response rating: 10
Giant foxtail; [7]
  Plant response rating, Giant foxtail: 9
morningglory; [1]
  Morningglory plant response rating: 7
morningglory; [2]
  Morningglory plant response rating: 10
morningglory; [5]
  Plant response rating, Morningglory: 10
morningglory; [3]
  Morningglory plant response rating: 0
morningglory; [6]
  Morningglory plant response rating: 0
morningglory; Preemergence, Rate 250 g/ha
  Morningglory plant response rating (0 to 10 scale): 2
morningglory; [4]
  Morningglory plant response rating: 6
morningglory; [7]
  Plant response rating, Morningglory: 10
pigweed; [8]
  Plant response rating, Redroot pigweed: 2
pigweed; [3]
  Redroot pigweed plant response rating: 2
pigweed; [6]
  Redroot pigweed plant response rating: 4
pigweed; Preemergence, Rate 250 g/ha
  Redroot pigweed plant response rating (0 to 10 scale): 4
pigweed; [4]
  Redroot pigweed plant response rating: 8
pigweed; [9]
  Plant response rating, Redroot pigweed: 0
rape; [1]
  Rape plant response rating: 0
rape; [2]
  Rape plant response rating: 0
rape; [5]
  Plant response rating, Rape: 3
rape; [3]
  Rape plant response rating: 0
rape; [6]
  Rape plant response rating: 0
rape; Preemergence, Rate 250 g/ha
  Rape plant response rating (0 to 10 scale): 5
rape; [4]
  Rape plant response rating: 7
rape; [7]
  Plant response rating, Rape: 2
soybean; [8]
  Plant response rating, Soybean: 6
soybean; [3]
  Soybean plant response rating: 0
soybean; [6]
  Soybean plant response rating: 0
soybean; Preemergence, Rate 250 g/ha
  Soybean plant response rating (0 to 10 scale): 3
soybean; [4]
  Soybean plant response rating: 9
soybean; [9]
  Plant response rating, Soybean: 6
Sugar beet; [8]
  Plant response rating, Sugarbeets: 2
Sugar beet; [3]
  Sugarbeets plant response rating: 5
Sugar beet; [6]
  Sugarbeets plant response rating: 5
Sugar beet; Preemergence, Rate 250 g/ha
  Sugarbeets plant response rating (0 to 10 scale): 6
Sugar beet; [4]
  Sugarbeets plant response rating: 8
Sugar beet; [9]
  Plant response rating, Sugarbeets: 1
velvetleaf; [8]
  Plant response rating, Velvetleaf: 8
velvetleaf; [3]
  Velvetleaf plant response rating: 5
velvetleaf; [6]
  Velvetleaf plant response rating: 6
velvetleaf; Preemergence, Rate 250 g/ha
  Velvetleaf plant response rating (0 to 10 scale): 6
velvetleaf; [4]
  Velvetleaf plant response rating: 7
velvetleaf; [9]
  Plant response rating, Velvetleaf: 5
wheat; [8]
  Plant response rating, Wheat: 5
wheat; [3]
  Wheat plant response rating: 0
wheat; [6]
  Wheat plant response rating: 0
wheat; Preemergence, Rate 250 g/ha
  Wheat plant response rating (0 to 10 scale): 0
wheat; [4]
  Wheat plant response rating: 5
wheat; [9]
  Plant response rating, Wheat: 4
Wild oat; [8]
  Plant response rating, Wild oats: 6
Wild oat; [3]
  Wild oats plant response rating: 5
Wild oat; [6]
  Wild oats plant response rating: 5
Wild oat; Preemergence, Rate 250 g/ha
  Wild oats plant response rating (0 to 10 scale): 6
Wild oat; [4]
  Wild oats plant response rating: 8
Wild oat; [9]
  Plant response rating, Wild oats: 2
Purple nutsedge; [1]
  Nutsedge plant response rating: 0
Purple nutsedge; [2]
  Nutsedge plant response rating: 0
Purple nutsedge; [5]
  Plant response rating, Nutsedge: 0
Purple nutsedge; [3]
  Nutsedge plant response rating: 0
Purple nutsedge; [6]
  Nutsedge plant response rating: 0
Purple nutsedge; Preemergence, Rate 250 g/ha
  Nutsedge plant response rating (0 to 10 scale): 0
Purple nutsedge; [4]
  Nutsedge plant response rating: 3
Purple nutsedge; [7]
  Plant response rating, Nutsedge: 0
rice; [10]
  Plant response rating, Rice (0 to 10 scale, 0 is no effect, 10 is complete control): 1
rice; [11]
  Rice plant response rating (0 to 10 scale, 0 is no effect, 10 is complete control): 1
rice; [12]
  Rice plant response rating: 0
rice; [13]
  Rice plant response rating: 0
Smallflower flatsedge; [10]
  Plant response rating, S. Flatsedge (0 to 10 scale, 0 is no effect, 10 is complete control): 0
Smallflower flatsedge; [11]
  S. Flatsedge plant response rating (0 to 10 scale, 0 is no effect, 10 is complete control): 0
Smallflower flatsedge; [12]
  S. Flatsedge plant response rating: 0
Smallflower flatsedge; [13]
  S. Flatsedge plant response rating: 4
Duck salad; [10]
  Plant response rating, Ducksalad (0 to 10 scale, 0 is no effect, 10 is complete control): 0
Duck salad; [11]
  Ducksalad plant response rating (0 to 10 scale, 0 is no effect, 10 is complete control): 0
Duck salad; [12]
  Ducksalad plant response rating: 0
Duck salad; [13]
  Ducksalad plant response rating: 2
bamyardgrass; [10]
  Plant response rating, Barnyardgrass (0 to 10 scale, 0 is no effect, 10 is complete control): 0
bamyardgrass; [11]
  Barnyardgrass plant response rating (0 to 10 scale, 0 is no effect, 10 is complete control): 0
bamyardgrass; [12]
  Barnyardgrass plant response rating: 3
bamyardgrass; [13]
  Barnyardgrass plant response rating: 6
